One assay has as its system KK.Cg-Ay/J (KKAY mouse). As to the kind of experiment: Blood glucose management in a mouse model of obesity and diabetes. The format is in vivo. The settings on record: KKAY mice; 100 μM/kg subcutaneous injection; after 7 days of treatment. The method, then:
(§1) • Species—KK.Cg-Ay/J (KKAY mouse) • Source—Jackson Laboratories • Age—12 weeks of age • Gender—Male • Randomization—Based on baseline fasting glucose Housing and Feeding: • Acclimation—Not less than five days • Housing • Mice will be housed on a 12 hr light/dark cycle • No more than 4 mice per cage depending on size • Ventilated cage rack system • Diet—Standard rodent chow and water ad libitum Design: • Route of administration:—Subcutaneous injection • Dose Volume(s)—10 mL/kg • Dose Levels—Test articles: 100 μM/kg, Metformin: 250 mg/kg • Number per group—10 • Total number of animals—30

A further assay can be described thus: Body weight of KKAY mice. The class given is in vivo, mouse. As to conditions: 100 μM/kg subcutaneous injection, 13 days of treatment. How it is done: as §1
Assay [1] deals with mTOR phosphorylated at Ser2448. The experiment in a line: Muscle protein synthesis (Phospho-mTOR assay). The class given is cell-based. As to conditions: HSkMC cells, 2 hours, FIG. 9. The method, then:
Phospho-mTOR sandwich ELISA detects endogenous levels of phosphorylated mTOR at Ser2448.
Day 1: Seed HSkMC cells in 500 uL/well of HSkMC Growth Medium and let them adhere to the wells for 16-24 h.
Day 2: Remove growth medium and add 500 uL/well of HSkMC Differentiation Medium to let them differentiate for 5-7 days.
Day 7: Treat cells for 2 hours. Collect cell lysates in lysis buffer.
Day 8: Perform BCA (protein determination) and run the assay. In a first incubation step, a mTOR antibody coated onto the ELISA microwells is used to capture mTOR (phospho and non-phospho) from the cell lysates. Then, following extensive washing, a specific phospho-mTOR detection antibody is added to detect only the phospho-mTOR protein captured before. Finally, a HRP-linked antibody is used to recognise the detection antibody and through the addition of TMB (HRP substrate) develop color proportionally to the quantity of mTOR phosphorylated at Ser2448.

The subject of assay [2] is Human Dermal Fibroblasts (HDF). As to the kind of experiment: Elastin production assay (ELISA). The class given is cell-based. As to conditions: 5, 1 or 0.1 μg/ml, 96 h, compared with untreated control, FIG. 4. The method, then:
Elastin is a highly elastic protein in connective tissue and allows many tissues in the body to resume their shape after stretching or contracting. […] Human Elastin ELISA kit assay is designed to measure Elastin in tissue or protein/peptide compositions.
Human Dermal Fibroblasts (HDF) were seeded in 24 well plates at 50,000 cells per well in DMEM containing 10% fetal calf serum (FCS), 1% Pen/strep, 1% L-glutamine and allowed to adhere for 24 h.
Following the initial 24 h incubation the cells were incubated with 5 μg/ml, 1 μg/ml or 0.1 μg/ml synthetic peptide for 96 h respectively.
After treatment, the cells were lysed using cell lysis buffer and sonicated for 10 seconds. The lysed cells were centrifuged and the supernatant was removed from each sample. Total protein concentration was determined using a BCA assay. Each sample was diluted in assay buffer to contain 10 μg total protein. 50 μl of each sample was then assayed using the […] Human Elastin ELISA kit. All steps were carried out according to the manufacturer's instructions.
(In general: ELISA stands for enzyme-linked immunosorbent assay.)

The test system of another assay is AMPK pathway. As to the kind of experiment: Phospho-AMPK alpha / Phospho-ACC / Phospho-Akt1 ELISA (mechanism of action). The format is cell-based. The settings on record: phospho-ELISAs on cell lysates; FIGS. 12-14. The method, then:
This set of experiments was undertaken to understand the mechanism of action of a peptide of SEQ ID NO. 1.
Phospho-Acetyl-CoA Carboxylase (Ser79) Sandwich ELISA Kit is a solid phase sandwich enzyme-linked immunosorbent assay (ELISA) that detects endogenous levels of acetyl-CoA carboxylase (ACC) when phosphorylated at Ser79. A phospho-ACC (Ser79) rabbit antibody was coated onto the microwells. After incubation with cell lysates, phospho-ACC protein was captured by the coated antibody. Following extensive washing, an ACC mouse detection mAb was added to detect the captured ACC protein. Anti-mouse IgG, HRP-linked antibody was then used to recognize the bound detection antibody. […] The magnitude of the absorbance for the developed color was proportional to the quantity of ACC phosphorylated at Ser79.
Phospho-Akt1 (Ser473) Sandwich ELISA Kit is a solid phase sandwich enzyme-linked immunosorbent assay (ELISA) that detects endogenous levels of phospho-Akt1 (Ser473) protein. […] The magnitude of absorbance for this developed colour is proportional to the quantity of phospho-Akt1 (Ser473) protein.
Phospho-AMPKα (Thr172) Sandwich ELISA Kit is a solid phase sandwich enzyme-linked immunosorbent assay (ELISA) that detects endogenous levels of AMPKα when phosphorylated at Thr172. […] The magnitude of the absorbance for this developed colour was proportional to the quantity of AMPKα phosphorylated at Thr172. […]

As for WKDEAGKPLVK [SEQ ID NO. 1], the blood glucose result in the assay on KK.Cg-Ay/J (KKAY mouse) is reported as “significantly reduced”. For the same sequence, in “Body weight of KKAY mice”, the “body weight relative to the untreated group” value is reported as “reduced body weight” and the “increase in body weight” value is “did not cause an increase”. Besides, in assay [1] (0.5 μg/ml), the mTOR result is “increase”. In assay [1] (5 μg/ml), the mTOR result is given as “increase”. Also, in assay [2], the elastin production result is on record as “increase”. For the same sequence, the “mechanism of action (pathway)” value in the assay with AMPK pathway is listed as “working through the AMPK pathway”.

For the origin of these results see patent publication US10729636B2, “Compositions comprising peptide [sequence]” (NURITAS LIMITED, priority 2016, dated 2020).
